Data reported in US8183364B2, “Substituted porphyrins” (Duke University, priority 2004, dated 2012).
Like-named read-outs stand apart in the source and are kept apart here.

Key:
[1] = Thin-layer chromatography on silica gel (retention factor Rf, lipophilicity); format: physicochemical; conditions: silica gel TLC, KNO3-saturated H2O/H2O/acetonitrile = 1/1/8
Protocol: Uv/vis spectra of porphyrin ligands and their Mn complexes were taken on a Shimadzu UV-2501-PC spectrophotometer at 25° C. Thin-layer chromatography of ligands and Mn complexes was done using silica gel plates with KNO3satH2O/H2O/acetonitrile=1/1/8.
Thin-layer chromatography. All new methoxyporphyrins are more lipophilic than MnTE-2-PyP^5+ and MnTDE-2-ImP^5+.

[2] = Catalysis of O2.^− dismutation by pulse radiolysis; format: biochemical; conditions: pulse radiolysis, pH 7.8, (22 ± 1) °C; kcat ±30%
Protocol: Catalysis of O2.^− dismutation. The catalytic rate constants for the O2.^− dismutation were determined by pulse radiolysis in 0.05 M phosphate buffer (pH 7.8) at (22±1)° C. as previously described (Batinic-Haberle et al, Inorg. Chem. 40:726 (2001)). In the present study 10 mM formate was used as a scavenger for H. atoms and .OH radicals, which leads first to production of CO2.^− radicals and then to O2.^− radicals. This system is known to lead to conversion of all primary radicals of water radiolysis into O2.^−.
Catalysis of O2.^− dismutation. Pulse radiolysis was used to assess the SOD-like activities of the Mn porphyrins studied. The initial concentration of O2.^− produced by the pulse was about 27 μM, and the concentration of the Mn porphyrin was between 0.5 and 5 μM. The dismutation of O2.^− was followed at 280 nm. The catalytic rate constant was determined from the linear dependence of kobs upon the concentration of the catalyst (Batinic-Haberle et al, Inorg. Chem. 40:726 (2001)). All the new compounds have high O2.^− dismuting ability. The magnitude of the catalysis is due to the interplay of the electron-withdrawing effects of quaternized ortho pyridyl or di-ortho imidazolyl groups, favorable electrostatics, and the solvation of the metal site.

[3] = Electrochemistry: cyclic voltammetry of the Mn(III)/Mn(II) redox couple; format: physicochemical
Protocol: Electrochemistry. Measurements were performed on a CH Instruments Model 600 Voltammetric Analyzer (Spasojevic and Batinic-Haberle, Inorg. Chim. Acta. 317:230-242 (2001), Batinic-Haberle et al, J. Biol. Chem. 273:24521-24528 (1998), Batinic-Haberle et al, Inorg. Chem. 38:4011-4022 (1999)). A three-electrode system in a small volume cell (0.5 mL to 3 mL), with a 3 mm-diameter glassy carbon button working electrode (Bioanalytical Systems), plus the Ag/AgCl reference and Pt auxiliary electrodes was used. Argon-purged solutions contained 0.05 M phosphate buffer, pH 7.8, 0.1 M NaCl, and 0.5 mM metalloporphyrin. The scan rates were 0.01-0.5 V/s, typically 0.1 V/s. The potentials were standardized against the potassium ferrocyanide/ferricyanide (Kolthof and Tomsicek, J. Phys. Chem. 39:945 (1935)) and/or against MnTE-2-PyP^5+ (Spasojevic and Batinic-Haberle, Inorg. Chim. Acta. 317:230-242 (2001), Batinic-Haberle et al, J. Biol. Chem. 273:24521-24528 (1998), Batinic-Haberle et al, Inorg. Chem. 38:4011-4022 (1999)).
Electrochemistry. All cyclic voltammograms, ascribed to the Mn(III)/Mn(II) redox couple, are reversible. The E1/2 of di-ortho ethylimidazolylporphyrin, MnTDE-2-ImP^5+ is 118 mV more positive than of ortho ethylpyridylporphyrin, MnTE-2-PyP^5+ (+228 mV vs NHE), as a consequence of charge delocalization. A similar difference of 114 mV was seen between their methoxyethyl analogues. Mn porphyrins bearing N-pyridyl substituents of the same length, MnTnBu-PyP^5+ and MnTMOE-2-PyP^5+, have nearly identical E1/2 of +254 and +251 mV vs NHE, which is 26 and 23 mV higher than that of MnTE-PyP^5+.

[4] = Oxidative degradation in the presence of ascorbic acid under aerobic conditions; format: physicochemical; conditions: pH 7.8 (0.05 M tris buffer)
Protocol: Under these conditions porphyrins underwent oxidative degradation. As previously observed (Batinic-Haberle et al, J. Chem. Soc., Dalton Trans., pgs. 2689-2696 (2002)), those porphyrins that are of more positive E1/2 are stabilized in +2 oxidation state and are less prone to oxidative damage. Accordingly, 27% and 24% of MnTE-2-PyP^5+ and MnTMOE-2-PyP^5+ undergo degradation within 2 hours, but only 2% of MnTM,MOE-2-ImP^5+ and MnTDMOE-2-ImP^5+ and 3% of MnTDE-2-ImP^5+.

[5] = tested on: SOD-deficient JI132 E. coli; test: Aerobic growth of SOD-deficient E. coli; format: cell-based; conditions: for facilitation of aerobic growth of SOD-deficient E. coli, dependence on concentration: 1-30 μM
Protocol: (§1) Aerobic growth of E. coli. Bacterial strains of E. coli used were wild type AB1157 (F-thr-1 leu-1 proA2 his-4 argE3 thr-1 lacY1 galK2 rpsL supE44 ara-14 xyl-15 mtl-1 tsx-33) and SOD-deficient JI132 (same as AB1157 plus (sodA::mudPR13)25 (sodB-kan)1-Δ2. Culture media were prepared as follows. M9 medium: 6 g/L Na2HPO4, 3 g/L KH2PO4, 0.5 g/L NaCl, 1 g/L NH4Cl, 2 mM MgSO4, 0.1 mM CaCl2, adjusted to pH 7.4 with NaOH, and supplemented with 0.2% glucose, 3 mg/L each of D-panthotenic acid and thiamine. M9CA medium contained M9 medium plus 0.2% casamino acids. 5-amino acid (5AA) minimal medium contained M9 medium plus 0.5 mM each of threonine, leucine, histidine, proline and arginine (Faulkner et al, J. Biocl. Chem. 269:23471 (1994)).
(§2) AB 1157 and 31132 were precultured overnight aerobically in M9CA medium at 37° C. and were then diluted to 3×10^7 cells/mL into 5 mL M9CA medium. JI132 was precultured in the presence of 20 μg/mL chloramphenicol and 500 μg/mL kanamycin. When the cells are transferred from M9CA medium to 5AA minimal medium cultures were first centrifuged and washed twice with the 5AA medium before final dilution in it. The centrifugation was conducted at room temperature to avoid temperature shocks. Cultures without and with Mn porphyrins (0.1 to 30 μM) were grown aerobically in 5 mL volume in test tubes in a thermostated orbital shaker (45° angle, 200 rpm) at 37° C.). Rates of growth were followed turbidimetrically at 700 nm to minimize interference from the absorbance of test compounds.

[6] = Mn(III)/Mn(II); 0.1 M NaCl, 0.05 M phosphate buffer, pH 7.8; data from Batinic-Haberle et al 2002; cited from earlier work
[7] = data from Batinic-Haberle et al 2002, cited from earlier work; for Rf (compound path/solvent path), metal-free porphyrin (in parenthesis): metal-free ligand of the named Mn porphyrin; for Rf (compound path/solvent path), Mn complex: silica gel TLC, KNO3-saturated H2O/H2O/acetonitrile = 1/1/8
[8] = pH 7.8, (22 ± 1) °C; data from Batinic-Haberle et al 2002 (MnTE-2-PyP: Inorg. Chem. 40:726 (2001)); cited from earlier work
wild type AB1157 E. coli = test: Aerobic growth of wild type E. coli (toxicity); format: cell-based
Protocol: as §1, §2

[9] = Kinetic salt effect on O2.^− dismutation by cytochrome c assay; format: biochemical
Protocol: Kinetic salt effect. The dependence of the catalytic rate constant for the O2.^− dismutation upon ionic strength was determined by cytochrome c assay (McCord and Fridovich, J. Biol. Chem. 244:6049 (1969)) in 0.05 M phosphate buffer, pH 7.8 with NaCl ranging from 0 to 0.4 M. In doing this, the effect of ionic strength on the rate of the O2.^−/cytochrome c reaction was corrected for.
Kinetic salt effect. The effect of the ionic strength (μ) on the catalytic rate constant was assessed using eq which is based on Debye-Huckel relation (Hambright et al, J. Porphyrins Phthalocyanines 7:139-146 (2003)) for the effect of the ionic strength of the solution on the activity coefficient of an ion. log k=log kref+2AzAzBμ^1/2/(1+μ^1/2) The k is the rate constant at any given ionic strength, while kref is the rate constant at μ=0. The A is a collection of physical constants with a value of 0.509 and zA and zB are the charges of the reacting species. The equation predicts a linear plot of log k vs μ^1/2/(1+μ^1/2). Eq assumes a coefficient of 1.0 (βai) for μ^1/2 in the denominator, i.e., the distance of the closest approach, ai to be 3 A and β is a physical constant, […]. It is doubtful whether great significance can be attributed to the ai, thus to the product zAzB (Hambright et al, J. Porphyrins Phthalocyanines 7:139-146 (2003)), especially so in the light of the bulkiness, high charge and solvation shell of the metalloporphyrins. Accounting for the mono- and diprotonated phosphates as the major species at pH 7.8 (pKa=7.2), and the concentration of the NaCl, the ionic strength was calculated using equation μ=½ Σ mizi^2 where mi is the molality and zi the charge of the given ion.
The slopes of the plots are −6.48 (MnTE-2-PyP^5+), −7.02 (MnTMOE-2-PyP^5+), −7.38 (MnTDMOE-2-ImP^5+), and −4.15 (MnTnBu-2-PyP^5+). As expected (Hambright et al, J. Porphyrins Phthalocyanines 7:139-146 (2003)), when the reactants are ions of opposite charges, the higher the ionic strength of the solution the lower the rate constants, i.e. the slopes are negative. The slopes of the plots indicate clearly the impact of the local dielectric constant on the kcat. The kcat of the most lipophilic compound, MnTnBu-2-PyP^5+ is 40% less sensitive to the changes in ionic strength of the solution than is the kcat of its methoxyethyl analogue, MnTMOE-2-PyP^5+.

SMILES	aerobic growth of SOD-deficient E. coli ([5]; 5AA minimal medium, 25 μM)	protection of SOD-deficient E. coli ([5]; M9CA medium, 1 μM)	protection of SOD-deficient E. coli ([5]; M9CA medium, 30 μM)	facilitation of aerobic growth of SOD-deficient E. coli, dependence on concentration ([5]; M9CA medium)	Metal-centered redox potential E1/2 [6]	Rf (compound path/solvent path), metal-free porphyrin (in parenthesis) [7]	Rf (compound path/solvent path), Mn complex [7]	log kcat for O2^− dismutation [8]	further results
COCCn1cc[n+](C)c1-c1c2nc(c(-c3n(CCOC)cc[n+]3C)c3ccc([n-]3)c(-c3n(CCOC)cc[n+]3C)c3nc(c(-c4n(CCOC)cc[n+]4C)c4ccc1[n-]4)C=C3)C=C2.[Mn+3] [MnTM,MOE-2-ImP^5+, Mn(III) tetrakis 5,10,15,20-tetrakis[N-methyl-N′-(2-methoxyethyl)imidazolium-2-yl]porphyrin]									Rf (compound path/solvent path), metal-free porphyrin (in parenthesis) ([1]; metal-free ligand of the named Mn porphyrin): 0.17; Rf (compound path/solvent path), Mn complex [1]: 0.15; log kcat for O2^− dismutation [2]: 7.98; Metal-centered redox potential E1/2 ([3]; Mn(III)/Mn(II), 0.1 M NaCl, 0.05 M phosphate buffer, pH 7.8, ±3 mV): +356 mV vs NHE; degradation within 2 hours [4]: 2%
C[n+]1ccccc1-c1c2nc(c(-c3cccc[n+]3C)c3ccc([n-]3)c(-c3cccc[n+]3C)c3nc(c(-c4cccc[n+]4C)c4ccc1[n-]4)C=C3)C=C2.[Mn+3] [MnTM-2-PyP^5+]	not far behind	low protection	either much higher or near full protection	concentration-dependent manner	+220 mV vs NHE	0.13	0.09	7.79	
CCCC[n+]1ccccc1-c1c2nc(c(-c3cccc[n+]3CCCC)c3ccc([n-]3)c(-c3cccc[n+]3CCCC)c3nc(c(-c4cccc[n+]4CCCC)c4ccc1[n-]4)C=C3)C=C2.[Mn+3] [MnTnBu-2-PyP^5+]					+254 mV vs NHE	0.46	0.33	7.25	aerobic growth of SOD-deficient E. coli ([5]; 5AA minimal medium, 3 μM): nearly as effective; aerobic growth of SOD-deficient E. coli ([5]; M9CA medium, 1 and 3 μM): less effective; aerobic growth of SOD-deficient E. coli ([5]; M9CA medium, 10 and 30 μM): most effective; toxicity to wild type E. coli (wild type AB1157 E. coli; M9CA medium, 30 μM (up to 30 μM)): only marginal toxicity; concentration at which toxicity on the parental (wild type) strain is exerted / becomes observable (wild type AB1157 E. coli; M9CA medium, range 0.1 to 30 μM): 30 µM; E1/2 more positive / higher than that of MnTE-2-PyP^5+ ([3]; difference vs MnTE-2-PyP^5+ (+228 mV vs NHE)): 26 mV; slope of log kcat vs μ^1/2/(1+μ^1/2) ([9]; 0.05 M phosphate buffer, pH 7.8, 0-0.4 M NaCl): −4.15; kcat less sensitive to changes in ionic strength than MnTMOE-2-PyP^5+ ([9]; vs MnTMOE-2-PyP^5+): 40%
CCC[n+]1ccccc1-c1c2nc(c(-c3cccc[n+]3CCC)c3ccc([n-]3)c(-c3cccc[n+]3CCC)c3nc(c(-c4cccc[n+]4CCC)c4ccc1[n-]4)C=C3)C=C2.[Mn+3] [MnTnPr-2-PyP^5+]	most effective	low protection	either much higher or near full protection	concentration-dependent manner	+238 mV vs NHE	0.31	0.20	7.38	
CCCCCCCC[n+]1ccccc1-c1c2nc(c(-c3cccc[n+]3CCCCCCCC)c3ccc([nH]3)c(-c3cccc[n+]3CCCCCCCC)c3nc(c(-c4cccc[n+]4CCCCCCCC)c4ccc1[nH]4)C=C3)C=C2 [metal-free n-octyl]									toxicity of metal-free vs Mn(III) complex (wild type AB1157 E. coli; separate experiment): equally toxic
